# Reference: PubChem BioAssay AID816 (SRMLSC, 2007)
# Active and inactive are the calls of the source. How the calls were made is not given here.
# Test system: S. cerevisiae GAL1 promoter reporter activation counterscreen
# Test: yeast Gal1p promoter activation – S. cerevisiae, artefact control for yeast lifespan extension project (AID 816);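 further: yeast growth read after 24 h of incubation with compounds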
row,SMILES,EC50
1,CC1CCCCN1C(=S)Nc1ccc2nc3n(c(=O)c2c1)CCCCC3 (stereo not drawn),> 40 µM (inactive)
2,CCOC(=O)C1C(=O)C(C(C)=O)C(=O)CC1CC(C)SCC (stereo not drawn),> 40 µM (inactive)
3,Cc1cc(C)cc(CC2CC(=O)N(c3ccc(Cl)cn3)C2=O)c1 (stereo not drawn),> 40 µM (inactive)
4,O=C(Cn1nc(Cl)nc1Cl)c1cc2ccccc2oc1=O,> 40 µM (inactive)
5,COc1cccc(/C=C2\C(=O)N(c3cccc(C)c3)C(=O)c3ccccc32)c1,> 40 µM (inactive)
6,CC(c1ccccc1)N1CCn2c(nc3cc(NC(=O)c4cccs4)ccc32)C1 (stereo not drawn),> 40 µM (inactive)
7,Cc1ccc(C(=O)c2no[n+]([O-])c2C(=O)c2ccc(C)cc2)cc1,> 40 µM (inactive)
8,CCC(=O)Nc1ccccc1Sc1ncnc2scc(-c3ccccc3)c12,> 40 µM (inactive)
9,CC(C)(C)C(=O)/C(=C/c1cccc([N+](=O)[O-])c1)n1cncn1,> 40 µM (inactive)
10,CCOc1ccc(OCC(=O)c2c(O)c3ccccc3oc2=O)cc1,> 40 µM (inactive)
11,O=C(COc1ccc([N+](=O)[O-])cc1)N(Cc1ccccc1)Cc1ccccc1,> 40 µM (inactive)
12,CCOc1ccc2nc(NCCNC(=O)Nc3ccccc3)c(C#N)cc2c1,> 40 µM (inactive)
13,Cc1ccc(NC(=O)CN2CCN(CCN=CC3=C(O)CC(c4ccccc4)CC3=O)CC2)cc1 (stereo not drawn),> 40 µM (inactive)
14,CCOC(=O)c1c(NC(=O)C2C3C=CC(C3)C2C(=O)O)sc2c1CCC(CC)C2 (stereo not drawn),> 40 µM (inactive)
15,COc1cc(/C=c2\sc3nc(-c4ccncc4)nn3c2=O)ccc1OC(C)=O,> 40 µM (inactive)
16,Cc1nc2ccccc2n1-c1ccccc1,> 40 µM (inactive)
17,Cc1cc(C=C2C(=O)N(C)C(=S)N(C)C2=O)c(C)n1-c1cccnc1,> 40 µM (inactive)
18,O=C1c2ccccc2-c2onc3c(Oc4ccccc4)cc(O)c1c23,> 40 µM (inactive)
19,Cc1ccc(NC(=O)Nc2nc(-c3ccc(C)s3)cs2)cc1,> 40 µM (inactive)
20,CC1CCc2cc(F)cc3c(O)c(C(=O)NCc4ccco4)c(=O)n1c23 (stereo not drawn),> 40 µM (inactive)
21,O=C(Nc1ccc(Br)cn1)c1cccc(-c2cc3ccccc3oc2=O)c1,> 40 µM (inactive)
22,COc1ccc(OC)c(C2C(C(C)=O)=C(O)C(=O)N2Cc2cccnc2)c1 (stereo not drawn),> 40 µM (inactive)
23,O=C(/C=C(\O)c1ccc(Cl)cc1)C(=O)NNC(=O)C(O)(c1ccccc1)c1ccccc1,> 40 µM (inactive)
24,CCOC(=O)CSC1=NC(=O)/C(=C/c2ccc(OC)cc2)S1,> 40 µM (inactive)
25,CCOc1ccc(/C=C/C(=O)c2c(O)c3ccccc3oc2=O)cc1,> 40 µM (inactive)

row,SMILES,EC50
1,CCc1ccc(C(=O)CN2C(=O)NC(C)(CCc3ccccc3)C2=O)cc1 (stereo not drawn),> 40 µM (inactive)
2,CCOC(=O)C1=C(C)Nc2nc(=S)[nH]n2C1c1ccc(Cl)cc1 (stereo not drawn),> 40 µM (inactive)
3,CC1=NN(c2ccc(C(F)(F)F)cn2)C(=O)C1,> 40 µM (inactive)
4,Cc1ccsc1C(=O)Nc1nnc(-c2ccco2)o1,> 40 µM (inactive)
5,COc1cccc(CSc2nc3ccccc3cc2C=O)c1,> 40 µM (inactive)
6,CN(c1ccccc1)c1nc2ccsc2c(=O)s1,> 40 µM (inactive)
7,COC(=O)CCS(=O)(=O)c1nc(-c2ccccc2)cc(C(F)(F)F)n1,> 40 µM (inactive)
8,Cc1ccc(N2NC(=O)/C(=C\c3cc4c(cc3[N+](=O)[O-])OCO4)C2=O)cc1C,> 40 µM (inactive)
9,COc1ccccc1C(=O)Oc1ccc2c(c1)O/C(=C\c1ccncc1)C2=O,> 40 µM (inactive)
10,CCc1nnc(NC(=O)c2cccc(S(=O)(=O)N(C)c3ccccc3)c2)s1,> 40 µM (inactive)
11,COc1ccc(-c2cc(N)n(S(=O)(=O)c3c(F)c(F)c(F)c(F)c3F)n2)cc1OC,> 40 µM (inactive)
12,O=c1c2ccccc2sn1-c1ccccc1,> 40 µM (inactive)
13,O=C(/C(=C/c1ccccc1)n1cncn1)c1ccc(Cl)cc1Cl,> 40 µM (inactive)
14,O=C1NCC2=C1C(c1ccc(Br)cc1)Nc1ccccc1N2 (stereo not drawn),> 40 µM (inactive)
15,C=C(C(=O)c1ccccc1)C(CC(=O)c1ccccc1)c1ccccc1 (stereo not drawn),> 40 µM (inactive)
16,O=C1c2ccccc2C(=O)N1Cc1nc2ccccc2c(=O)n1-c1ccc(Br)cn1,> 40 µM (inactive)
17,Cc1cc(C)c(S(=O)(=O)c2ccccc2)c(OC(=O)c2cc(F)c(F)cc2Cl)n1,> 40 µM (inactive)
18,CC(c1ccco1)N(C(=O)c1ccccc1NS(=O)(=O)c1cc([N+](=O)[O-])ccc1Cl)c1ccccn1 (stereo not drawn),> 40 µM (inactive)
19,CCCCN(CCCC)c1ccc(C(=O)c2ccccc2C(=O)O)c(O)c1,> 40 µM (inactive)
20,O=C(NCc1ccc(Cl)cc1)c1ccccc1CCc1ccccc1,> 40 µM (inactive)
21,CCCc1cc(=O)oc2cc(C)c(CN3CCCC3)c(O)c12,> 40 µM (inactive)
22,O=C1CC(c2ccccc2)CC(O)=C1C=NCCN1CCN(C(=O)Nc2ccccc2)CC1 (stereo not drawn),> 40 µM (inactive)
23,COCCCN(C(=S)Nc1cc(Cl)cc(Cl)c1)C(C)c1ccncc1 (stereo not drawn),> 40 µM (inactive)
24,O=S1(=O)C=C(Sc2nnc(-c3ccccc3)o2)c2ccccc21,> 40 µM (inactive)
25,Oc1ccc2ccccc2c1/C=N/c1nccs1,> 40 µM (inactive)

row,SMILES,EC50
1,O=C(O)CCCCCN1C(=O)/C(=C\c2ccncc2)SC1=S,> 40 µM (inactive)
2,CCCCSc1nc(O)c(C2OC(=O)c3c2ccc(OC)c3OC)c(=O)n1C (stereo not drawn),> 40 µM (inactive)
3,Cc1ccc(NC(=O)C2C(=O)N(C)c3ccccc32)cc1 (stereo not drawn),> 40 µM (inactive)
4,Cc1cc(C)nc(SCc2cc(=O)c(OC(=O)c3ccco3)co2)n1,> 40 µM (inactive)
5,COc1ccc(CN2C(=O)/C(=C/c3ccncc3)SC2=S)cc1,> 40 µM (inactive)
6,C=CS(=O)(=O)c1ccc(Oc2ccc(S(=O)(=O)C=C)cc2)cc1,> 40 µM (inactive)
7,CC1CC(C)CN(S(=O)(=O)c2cccc(C(=O)N3C(=O)c4cccc(N)c4C3=O)c2)C1 (stereo not drawn),> 40 µM (inactive)
8,COc1ccc(-c2noc(CSc3nnc(-c4ccncc4)n3-c3ccc(F)cc3)n2)cc1OC,> 40 µM (inactive)
9,O=c1c2ccccc2nc(-c2cccc(Cl)c2)n1O,> 40 µM (inactive)
10,COc1cc(/C=C/C(=O)C2C(=O)C=C(C)OC2=O)cc(OC)c1O (stereo not drawn),> 40 µM (inactive)
11,O=C(CCl)c1ccc(Cc2ncc(C(F)(F)F)cc2Cl)s1,> 40 µM (inactive)
12,O=Cc1cccn1-c1sc2c(c1C(=O)O)CCCC2,> 40 µM (inactive)
13,Cc1c(NC(=O)C(=O)/C=C(\O)c2ccc(Cl)cc2)c(=O)n(-c2ccccc2)n1C,> 40 µM (inactive)
14,O=C(Nc1nccs1)c1ccc2c(=O)n3c(nc2c1)CCCCC3,> 40 µM (inactive)
15,Cc1ccnc(SCc2cc(=O)c(OC(=O)c3ccco3)co2)n1,> 40 µM (inactive)
16,Cc1ccc(C(=O)NNC(=S)NC(=O)c2ccc(Cl)cc2)cc1,> 40 µM (inactive)
17,O=C(NCCc1ccccn1)C(F)(F)C(F)(F)C(F)(F)C(F)(F)C(F)(F)C(F)(F)C(F)(F)C(F)F,> 40 µM (inactive)
18,CCOC(=O)C1C(c2cccs2)NC(=O)N(C)C1(O)C(F)(F)F (stereo not drawn),> 40 µM (inactive)
19,CCCCC(c1nnnn1CC1CCCO1)N1CCN(c2nc3ccccc3s2)CC1 (stereo not drawn),> 40 µM (inactive)
20,Cc1ccccc1OC(=O)n1c(=S)oc2cc(Cl)ccc21,> 40 µM (inactive)
21,O=C(c1c[nH]c(C(=O)C(Cl)(Cl)Cl)c1)c1ccccc1Cl,> 40 µM (inactive)
22,Fc1cccc2sc(Nc3nnc(-c4ccccc4)o3)nc12,> 40 µM (inactive)
23,CCOC(=O)c1ccccc1N1C(=O)CSC1=S,> 40 µM (inactive)
24,COC(=O)CSc1ncccc1-c1nc2ccccc2[nH]1,> 40 µM (inactive)
25,Cc1ccc(-c2ccc(/C=C3\C(=O)ON=C3c3ccccc3)o2)c([N+](=O)[O-])c1,> 40 µM (inactive)

row,SMILES,EC50
1,CCCC(=Nc1ccc(N)cc1)C1=C(O)C(C(=O)OC)C(C)(C)CC1=O (stereo not drawn),> 40 µM (inactive)
2,COC(=O)C(=O)/C=C(\O)c1ccc(C)cc1,> 40 µM (inactive)
3,CN(C)/C=C(/C(=O)c1ccc(Cl)cc1Cl)S(=O)(=O)c1ccccc1,> 40 µM (inactive)
4,C=C1C(=O)C=C2CN(C(=O)c3ccccc3)[C@@](Cc3ccc(F)cc3)(C(=O)OC)[C@@H]12,> 40 µM (inactive)
5,CC1=CS(=O)(=O)CC1Sc1nc2ccccc2[nH]1 (stereo not drawn),> 40 µM (inactive)
6,COc1ccc2c(=O)c3c(=O)n(Cc4ccco4)c(-c4ccc(C)cc4)nc3oc2c1,> 40 µM (inactive)
7,CN1C/C(=C/c2cccnc2)C(=O)/C(=C/c2cccnc2)C1,> 40 µM (inactive)
8,CC(=O)Nc1c(O)nc(SCc2ccccc2C#N)[nH]c1=O,> 40 µM (inactive)
9,Cc1ccc(Oc2nc3ccccc3n3c(C)nnc23)c(C)c1,> 40 µM (inactive)
10,CCOC(=O)C1CCN(C(c2cc3ccc(C)c(C)c3[nH]c2=O)c2nnnn2C2CCCCC2)CC1 (stereo not drawn),> 40 µM (inactive)
11,Cc1cc(C)nc(SCc2cc(=O)c(OC(=O)c3ccc(Br)o3)co2)n1,> 40 µM (inactive)
12,CCCn1c(SCC(=O)c2ccc3c(c2)NC(=O)CO3)nc2ccccc21,> 40 µM (inactive)
13,COCCn1c(SCC(=O)Nc2ccc(C)cc2)nc2c(oc3ccccc32)c1=O,> 40 µM (inactive)
14,Cc1cccc(OC(=O)n2c(=S)oc3cc(Cl)ccc32)c1,> 40 µM (inactive)
15,O=C1c2ccccc2NC(c2ccc(Cl)cc2Cl)N1O (stereo not drawn),> 40 µM (inactive)
16,CC1(C)CC2c3cccc(C(=O)O)c3C(=O)N2c2c1ccc1ccccc21 (stereo not drawn),> 40 µM (inactive)
17,Cc1cc(N=Cc2c(O)ccc3ccccc23)no1,> 40 µM (inactive)
18,COc1ccc(N(C(=O)C(C)C)S(=O)(=O)c2ccc(Cl)cc2)cc1,> 40 µM (inactive)
19,O=S(=O)(Nc1cccc2c1CCCC2)c1ccc(Cl)cc1,> 40 µM (inactive)
20,COc1ccc(CN2CCN(C(=O)COc3cccc(C)c3)CC2)c(OC)c1,> 40 µM (inactive)
21,CCc1nnc(N2C(=O)c3ccc(Oc4ccc([N+](=O)[O-])cc4)cc3C2=O)s1,> 40 µM (inactive)
22,CC1(C)CC(=O)C(C(=O)Cc2ccccc2[N+](=O)[O-])C(=O)C1,> 40 µM (inactive)
23,O=C(NCc1ccco1)c1c(O)c2cccc3c2n(c1=O)CCC3,> 40 µM (inactive)
